# Publication PMC11845477, “Exploring the principles behind antibiotics with limited resistance” (Nature Communications, 2025)
# Where a SMILES comes first, the peptide text is derived from it. Bridges are numbered along the chain shown (N, C = ends). [ ]: non-standard residue; d: D form. The star is where a group is joined. X2 = CC[C@H](C)CCCCC(=O)*; Dab = NCC[C@H](N)C(=O)O
# System: P. aeruginosa ATCC BAA-3107 (SEN) and P. aeruginosa LESB58 (MDR)
# Test: Adaptive laboratory evolution (ALE), relative MIC of evolved lines
# Assay type: cell-based, Pseudomonas aeruginosa
# Conditions: for Relative MIC: ALE, Pseudomonas aeruginosa ATCC BAA 3107 (PA-SEN)
# Description: Using the same set of bacterial strains, we initiated adaptive laboratory evolution with the aim to maximize the level of antibiotic resistance in the populations achieved during a longer, but fixed time period.
# An established protocol for adaptive laboratory evolution[46],[73] was followed to propagate populations with the highest resistance levels. Starting with an antibiotic concentration that caused approximately 50% growth inhibition, ten parallel populations for each antibiotic-ancestor strain combination were grown for 72 hours at 37 °C with continuous shaking (300 RPM). MHB broth medium was used unless stated otherwise. After each incubation, 20 µl of each culture was transferred to four new wells containing fresh medium with increasing antibiotic concentrations (0.5×, 1×, 1.5×, and 2.5× the previous concentration) in a chessboard layout to monitor potential cross-contamination. Growth was monitored by measuring OD600 using a Biotek Synergy 2 microplate reader, and only populations grown in the highest drug concentration with an OD600 > 0.2 were transferred further.
# A robotic liquid handling system was used to automatically prepare a 11 to 16-step serial dilution in 384-well microtiter plates (Greiner). A final concentration of 5 × 10^5 bacterial cells per mL were inoculated into each well containing 60 µL MHB medium. Bacterial cultures were incubated at 37 °C with continuous shaking (Infors shaker, 900 rpm with 3 mm throw) for 18 hours (2 replicates from each). Cell growth was monitored by measuring the optical density (OD600 values, using Biotek Synergy microplate reader). MIC was defined as the antibiotic concentration of complete growth inhibition (i.e., OD600 < 0.05). Relative MIC was calculated as follows:1 relativeMIC=MICevolved/MICancestor […]
# Supplementary Figure 4. Resistance levels following adaptive laboratory evolution across bacterial strains. The level of resistance was measured as the fold change in relative MIC between evolved and ancestral strains after ~60 days of adaptive laboratory evolution. Data are grouped by bacterial strain (A. baumannii (AB), E. coli (EC), K. pneumoniae (KP), and P. aeruginosa (PA)) and categorized as either multidrug-resistant (MDR) or sensitive (SEN). Each data point represents a laboratory evolved line, and boxplots show the median, first and third quartiles, with whiskers indicating the 5th and 95th percentiles.
# Statistical analysis was performed using two-sided Dunn’s post-hoc test with Benjamini-Hochberg correction for multiple comparisons (****/ ***/ **/ * indicates p < 0.0001/ 0.001/ 0.01/ 0.05). For detailed information on antibiotic and bacterial species, see Supplementary Table 1. For mode of action groups, refer to Table 1. Source data are provided as a Source Data file.
Compound,"Relative MIC (log10) (PA-MDR (Pseudomonas aeruginosa LESB 58), evolved line 1)","Relative MIC (log10) (PA-MDR (Pseudomonas aeruginosa LESB 58), evolved line 6)","Relative MIC (log10) (PA-MDR, Pseudomonas aeruginosa LESB 58, evolved line 9)","Relative MIC (log10) (PA-MDR, Pseudomonas aeruginosa LESB 58, evolved line 2)","Relative MIC (log10) (PA-MDR, Pseudomonas aeruginosa LESB 58, evolved line 7)","Relative MIC (log10) (PA-SEN, Pseudomonas aeruginosa ATCC BAA 3107, evolved line 1)","Relative MIC (log10) (PA-SEN, Pseudomonas aeruginosa ATCC BAA 3107, evolved line 4)","Relative MIC (log10) (PA-SEN, Pseudomonas aeruginosa ATCC BAA 3107, evolved line 5)","Relative MIC (log10) (PA-SEN, Pseudomonas aeruginosa ATCC BAA 3107, evolved line 7)","Relative MIC (log10) (PA-SEN, Pseudomonas aeruginosa ATCC BAA 3107, evolved line 8)",Relative MIC (evolved line 1),Relative MIC (evolved line 2),Relative MIC (evolved line 3),Relative MIC (evolved line 4),Relative MIC (evolved line 6),Relative MIC (evolved line 8)
CC[C@H](C)CCCCC(=O)N[C@@H](CCN)C(=O)N[C@H](C(=O)N[C@@H](CCN)C(=O)N[C@H]1CCNC(=O)[C@H]([C@@H](C)O)NC(=O)[C@H](CCN)NC(=O)[C@H](CCN)NC(=O)[C@H](CC(C)C)NC(=O)[C@@H](Cc2ccccc2)NC(=O)[C@H](CCN)NC1=O)[C@@H](C)O [Polymyxin B] (X2-[Dab]T[Dab][Dab][Dab][dF]L[Dab][Dab]T; lactam 4-C (inferred); N-terminus assumed),1.505,1.806,1.806,2.107,1.204,1.505,1.505,1.505,1.204,1.204,–,–,–,–,–,–
POL7306,–,–,–,–,–,–,–,–,–,–,2,2,2,2,2,2
